What all share (type): cell-based, human
The test system of test [1] is ZSCAN4. Briefly: Activation of DUX4 target gene ZSCAN4, RT-qPCR. The settings on record: MB135 cells ± doxycycline. As to the method:
(§1) All myoblast experiments were conducted in immortalized MB135 or MB200 myoblast cell lines (isolated from a control or FSHD2 subject, respectively cultured in Ham's F-10 Nutrient Mix (Gibco) supplemented with 15% fetal bovine serum (Hyclone), 100 U/100 μg/ml penicillin/streptomycin (Gibco), 1 μM dexamethasone (Sigma), and 10 ng/ml recombinant human basic fibroblast growth factor (PeproTech). To differentiate the myoblasts to myotubes, media was changed to DMEM supplemented with 10 μg/ml insulin (Sigma) and 10 μg/ml transferrin (Sigma). Cell lines containing doxycycline-inducible transgenes were additionally cultured with 2 μg/mL puromycin (Sigma). Transgenes were induced with 1 μg/mL of doxycycline (Sigma) for 4 hours prior to other treatments for a total of 20 hrs. The Kitra-SRS cells (RRID:CVCL_YI69) were provided by Dr. H. Otani and Osaka University (Nakai et al., 2019) and were cultured in DMEM supplemented with 10% fetal bovine serum (Hyclone) and 100 U/100 μg/ml penicillin/streptomycin (Gibco). Biological replicates consisted of independent but parallel experiments, such as simultaneously stimulating three cell culture plates with IFNγ. Technical replicates consisted of repeat measurements of the same biological sample, such as loading the same biological sample in triplicate for analysis by RT-qPCR.
(§2) Myoblasts were transfected with either (final concentrations) 10 μM 2′,3′-cGAMP (Sigma Aldrich), 2 μg/mL poly(I:C) (Invitrogen), or 1 μg/mL 3′ppp-dsRNA RIG-I ligand (Dan Stetson Lab, UW) using Lipofectamine 2000 according to manufacturer's protocol, or were stimulated with 1000U IFNβ (PeproTech) or 200 ng/ml IFNγ (R+D Systems) by addition directly to cell culture medium. After 16 hours of immune stimulation, RNA was collected from cells using the NucleoSpin RNA Kit (Macherey-Nagel) according to manufacturer's instructions. RNA samples were quantified by nanodrop and 1 μg of RNA per sample was treated with DNase I Amplification Grade (Thermo Fisher), and then synthesized into cDNA using the Superscript IV First-Strand Synthesis System, including oligo dT primers (Invitrogen). qPCR was run in 384-well plates on an Applied Biosystems QuantStudio 6 Flex Real-Time PCR System (ABI) and analyzed in Microsoft Excel.

Test [2] deals with interferon-stimulated genes IFIH1, ISG20, CXCL9, and CD74. Briefly: IFNG induction of interferon-stimulated genes, RT-qPCR in MB135 cells with doxycycline-inducible transgenes. The settings on record: MB135 cells, doxycycline-induced transgene, continuous protocol, IFNG 16 h. The method, then: as §1, §2
In test [3] the test system is MHC-I, PSMB8, PSMB9, and PSMB10. Kind of test: Immunoblot of IFNG-induced MHC-I and immunoproteasome protein in MB135 myoblasts treated with inhibitors. The settings on record: MB135 myoblasts without DUX4 induction, agent then IFNG 16 h; 4EGI-1 at 50 uM. The method, then:
To test if mTOR inactivation was sufficient to block MHC-I and immunoproteasome protein levels in the absence of DUX4, parental MB135 myoblasts were treated with mTOR inhibitors everolimus or Torin2. Everolimus is a second-generation rapamycin analog with binding specificity for mTORC1. […] To further validate the role of 4EBP1 in blocking MHC-I and immunoproteasome protein expression, MB135 cells were treated with 4EGI-1, a small molecule that pharmacologically mimics 4EBP function and inhibits eIF4E.
(§3) Protein samples were harvested in RIPA buffer [150 mM NaCl, 1% NP-40, 0.5% Na-deocycholate, 1% SDS, 25 mM Tris-HCl pH7.4] supplemented with protease and phosphatase inhibitor tablets (Pierce), followed by sonication in Diagenode Bioruptor. Lysate was cleared by centrifugation at 16000×g and quantified using a Pierce BCA assay (Thermo Fisher Scientific). Samples were run on NuPAGE precast polyacrylamide gels (Invitrogen) and transferred to PVDF membrane. Membranes were blocked in PBS containing 0.1% Tween-20 and 5% non-fat dry milk before overnight incubation at 4° C. with primary antibodies (see resource table for a list of antibodies used in this study). Membranes were incubated with horseradish peroxidase-conjugated secondary antibodies for 1 hour at room temperature and SuperSignal chemiluminescent substrate (Thermo Scientific) was used for detection on film with a Mini-medical 90 processor. Membranes were stripped with Restore Western Blot Stripping Buffer (Pierce).

Test [4] deals with HLA-A, HLA-B, HLA-C, PSMB8, PSMB9, PSMB10 mRNA. Kind of test: mRNA levels of MHC-I and immunoproteasome genes (RT-PCR, RNA-seq). Particulars: MB135 cells, 50 uM, data not shown. The method, then:
as §2
Total RNA was isolated using the NucleoSpin RNA kit (Machery-Nagel) or Direct-zol RNA Mini-Prep Kit (Zymo Research) according to manufacturer's instructions. RNA-seq libraries were prepared using the Illumina TruSeq RNA Sample Prep v2 Kit and sequenced using 50 bp paired-end sequencing on the Illumina NextSeq platform by the Fred Hutchinson Cancer Center Genomics Core.

For test [5], the system named is eIF2-alpha, RPS6, 4EBP1, eIF4E, eEF2. Briefly: Immunoblot of translational regulators. The settings on record: parental MB135 myoblasts treated with mTOR inhibitor. The method, then: as §3

“Also recorded” adds a separate entry of the source.

“iDUX4mL1: DUX4 transgene mutating the first (L)LxxL(L) motif, SEQ ID NO: 99 (PCGLLAAEAAASPEFLQQAQPLLETEAPGELEASEEAASLEAPLSEEEYRALLEEL)”: the “transcriptional activation of DUX4 target gene ZSCAN4” value in test [1] is given as “failed to activate the DUX4 target ZSCAN4”. Besides, the “suppression of IFNG induction of ISGs (IFIH1, ISG20, CXCL9, CD74)” value in test [2] is recorded as “partial activity, suppressing 3 of the 4 ISGs”.
Turning to `O=C(O)C(Cc1ccccc1[N+](=O)[O-])=NNc1nc(-c2ccc(Cl)c(Cl)c2)cs1` (mixture of isomers) [4EGI-1], the “effect on IFNG-induced MHC-I and immunoproteasome protein in the absence of DUX4” value (“effect … of DUX4” for short) in test [3] was “suppressed IFNG-induced MHC-I and immunoproteasome subunits at the protein level; also recorded: suppressed IFN-induced MHC-I and iProteasome subunits at the protein level”. The “effect on mRNA levels of MHC-I and iProteasome subunits” value in test [4] is listed as “had no effect on mRNA levels”.
Consider “iDUX4dL2: DUX4 transgene deleting the second (L)LxxL(L) motif, SEQ ID NO:100 (PCGLLLDELLASPEFLQQAQPLLETEAPGELEASEEAASLEAPLSEEYRA)”, for which the “transcriptional activation of DUX4 target gene ZSCAN4” value in test [1] is recorded as “failed to activate the DUX4 target ZSCAN4”. The “suppression of IFNG induction of ISGs (IFIH1, ISG20, CXCL9, CD74)” value in test [2] was “lost the ability to suppress the panel of ISGs”.
As to `Nc1ccc(-c2ccc3ncc4ccc(=O)n(-c5cccc(C(F)(F)F)c5)c4c3c2)cn1` [Torin2, reference compound], in test [3], the “effect … of DUX4” value was “sufficient to post-transcriptionally repress IFNG-induced MHC-I, PSMB8, PSMB9, and PSMB10 protein expression”. Besides, in test [5], the “phosphorylation of 4EBP1 and eIF4E” value was “complete hypophosphorylation of 4EBP1 and reduced eIF4E phosphorylation”; the “phosphorylation of RPS6” value is “blocked phosphorylation of RPS6”.
As for `COc1ccc(C[C@H](NC(=O)[C@H](C)NC(=O)CN2CCOCC2)C(=O)N[C@@H](Cc2ccccc2)C(=O)C2(C)CO2)cc1` (stereo in doubt) [ONX-0914], the “effect … of DUX4” value in test [3] is recorded as “did not reduce IFNG-induced MHC-I levels”.
Still for that read-out and setting: with `CC(C)C[C@H](NC(=O)[C@H](CCc1ccccc1)NC(=O)CN1CCOCC1)C(=O)N[C@@H](Cc1ccccc1)C(=O)N[C@@H](CC(C)C)C(=O)[C@@]1(C)CO1` [Carfilzomib] the entry was “abrogated the accumulation of MHC-I following IFNG treatment”.
Consider `CO[C@H]1C[C@@H]2CC[C@@H](C)[C@@](O)(O2)C(=O)C(=O)N2CCCC[C@H]2C(=O)O[C@H]([C@H](C)C[C@@H]2CC[C@@H](OCCO)[C@H](OC)C2)CC(=O)[C@H](C)/C=C(\C)[C@@H](O)[C@@H](OC)C(=O)[C@H](C)C[C@H](C)/C=C/C=C/C=C/1C` [everolimus, reference compound], for which the “effect … of DUX4” value in test [3] was “did not block MHC-I or immunoproteasome protein expression”. For the same molecule, in test [5], the “phosphorylation of 4EBP1 and eIF4E” value is 4EBP1 phosphorylation and eIF4E phosphorylation remained largely unaltered; the “phosphorylation of RPS6” value is “blocked S6K phosphorylation of RPS6”.

The values are drawn from patent US20250339531A1, “DUX4 POLYPEPTIDES AND NUCLEIC ACIDS FOR TREATING INFLAMMATORY AND AUTOIMMUNE CONDITIONS” (Fred Hutchinson Cancer Center, priority 2021, published 2025).
